Test results: the NIST ThermoML archive (doi:10.1016/j.jct.2017.07.008)
Values joined by “and” are separate entries in the source; they are usually repeats but may differ in a detail not shown here. Identical values can stand only once. Numbers after ± are expanded uncertainties.

Settings: for surface tension liquid-gas: Drop volume; for viscosity / speed of sound / mass density: Liquid; for viscosity: Capillary tube (Ostwald / Ubbelohde) method; for speed of sound: Frequency=3 MHz, Single path-length method; for mass density: Vibrating tube method

O=Cc1cccs1 [2-thiophenealdehyde]
Settings	surface tension liquid-gas [mN/m]
283.15 K	47.82 ± 0.34
285.65 K	47.52 ± 0.33
288.15 K	47.22 ± 0.33
290.65 K	46.92 ± 0.33
293.15 K	46.6 ± 0.33
295.65 K	46.27 ± 0.33
298.15 K	45.99 ± 0.33
300.65 K	45.68 ± 0.33
303.15 K	45.4 ± 0.33
305.65 K	45.08 ± 0.33
308.15 K	44.75 ± 0.32
310.65 K	44.48 ± 0.32
313.15 K	44.17 ± 0.32

Settings	mass density	speed of sound [m/s]	viscosity [mPa·s]
283.15 K, 100 kPa	1232.44 ± 0.58 kg/m3 and 1232.47 ± 0.58 kg/m3	1512.8 ± 0.95	2.796 ± 0.033
283.15 K, 2000 kPa	1233.56 ± 0.58 kg/m3	–	–
283.15 K, 5000 kPa	1235.26 ± 0.6 kg/m3	–	–
283.15 K, 7000 kPa	1236.39 ± 0.61 kg/m3	–	–
283.15 K, 10000 kPa	1238.06 ± 0.62 kg/m3	–	–
283.15 K, 15000 kPa	1240.76 ± 0.65 kg/m3	–	–
283.15 K, 20000 kPa	1243.38 ± 0.68 kg/m3	–	–
283.15 K, 25000 kPa	1245.94 ± 0.72 kg/m3	–	–
283.15 K, 30000 kPa	1248.47 ± 0.75 kg/m3	–	–
283.15 K, 35000 kPa	1250.93 ± 0.79 kg/m3	–	–
283.15 K, 40000 kPa	1253.33 ± 0.83 kg/m3	–	–
283.15 K, 45000 kPa	1255.69 ± 0.87 kg/m3	–	–
283.15 K, 50000 kPa	1258.02 ± 0.91 kg/m3	–	–
283.15 K, 55000 kPa	1260.26 ± 0.95 kg/m3	–	–
283.15 K, 60000 kPa	1262.44 ± 1 kg/m3	–	–
283.15 K, 65000 kPa	1264.58 ± 1 kg/m3	–	–
285.65 K, 100 kPa	1229.92 ± 0.58 kg/m3	1504.3 ± 0.95	2.661 ± 0.032
288.15 K, 100 kPa	1227.39 ± 0.57 kg/m3	1495.9 ± 0.95	2.513 ± 0.03
288.15 K, 2000 kPa	1228.51 ± 0.58 kg/m3	–	–
288.15 K, 5000 kPa	1230.24 ± 0.6 kg/m3	–	–
288.15 K, 7000 kPa	1231.38 ± 0.61 kg/m3	–	–
288.15 K, 10000 kPa	1233.07 ± 0.62 kg/m3	–	–
288.15 K, 15000 kPa	1235.82 ± 0.65 kg/m3	–	–
288.15 K, 20000 kPa	1238.51 ± 0.68 kg/m3	–	–
288.15 K, 25000 kPa	1241.13 ± 0.71 kg/m3	–	–
288.15 K, 30000 kPa	1243.69 ± 0.74 kg/m3	–	–
288.15 K, 35000 kPa	1246.2 ± 0.78 kg/m3	–	–
288.15 K, 40000 kPa	1248.64 ± 0.82 kg/m3	–	–
288.15 K, 45000 kPa	1251.04 ± 0.86 kg/m3	–	–
288.15 K, 50000 kPa	1253.38 ± 0.9 kg/m3	–	–
288.15 K, 55000 kPa	1255.68 ± 0.94 kg/m3	–	–
288.15 K, 60000 kPa	1257.93 ± 0.99 kg/m3	–	–
288.15 K, 65000 kPa	1260.14 ± 1 kg/m3	–	–
290.65 K, 100 kPa	1224.88 ± 0.57 kg/m3	1487.4 ± 0.95	2.386 ± 0.029
293.15 K, 100 kPa	1222.35 ± 0.57 kg/m3 and 1222.36 ± 0.57 kg/m3	1479.1 ± 0.95	2.267 ± 0.027
293.15 K, 2000 kPa	1223.5 ± 0.58 kg/m3	–	–
293.15 K, 5000 kPa	1225.27 ± 0.59 kg/m3	–	–
293.15 K, 7000 kPa	1226.44 ± 0.6 kg/m3	–	–
293.15 K, 10000 kPa	1228.16 ± 0.62 kg/m3	–	–
293.15 K, 15000 kPa	1230.98 ± 0.64 kg/m3	–	–
293.15 K, 20000 kPa	1233.73 ± 0.67 kg/m3	–	–
293.15 K, 25000 kPa	1236.41 ± 0.7 kg/m3	–	–
293.15 K, 30000 kPa	1239.02 ± 0.74 kg/m3	–	–
293.15 K, 35000 kPa	1241.57 ± 0.77 kg/m3	–	–
293.15 K, 40000 kPa	1244.07 ± 0.81 kg/m3	–	–
293.15 K, 45000 kPa	1246.51 ± 0.85 kg/m3	–	–
293.15 K, 50000 kPa	1248.9 ± 0.89 kg/m3	–	–
293.15 K, 55000 kPa	1251.24 ± 0.93 kg/m3	–	–
293.15 K, 60000 kPa	1253.53 ± 0.97 kg/m3	–	–
293.15 K, 65000 kPa	1255.77 ± 1 kg/m3	–	–
295.65 K, 100 kPa	1219.84 ± 0.57 kg/m3	1470.8 ± 0.95	2.162 ± 0.026
298.15 K, 100 kPa	1217.32 ± 0.57 kg/m3	1462.4 ± 0.95	2.053 ± 0.025
298.15 K, 2000 kPa	1218.49 ± 0.58 kg/m3	–	–
298.15 K, 5000 kPa	1220.31 ± 0.59 kg/m3	–	–
298.15 K, 7000 kPa	1221.5 ± 0.6 kg/m3	–	–
298.15 K, 10000 kPa	1223.27 ± 0.62 kg/m3	–	–
298.15 K, 15000 kPa	1226.15 ± 0.64 kg/m3	–	–
298.15 K, 20000 kPa	1228.95 ± 0.67 kg/m3	–	–
298.15 K, 25000 kPa	1231.69 ± 0.7 kg/m3	–	–
298.15 K, 30000 kPa	1234.36 ± 0.73 kg/m3	–	–
298.15 K, 35000 kPa	1236.96 ± 0.77 kg/m3	–	–
298.15 K, 40000 kPa	1239.51 ± 0.8 kg/m3	–	–
298.15 K, 45000 kPa	1242 ± 0.84 kg/m3	–	–
298.15 K, 50000 kPa	1244.43 ± 0.88 kg/m3	–	–
298.15 K, 55000 kPa	1246.81 ± 0.92 kg/m3	–	–
298.15 K, 60000 kPa	1249.14 ± 0.96 kg/m3	–	–
298.15 K, 65000 kPa	1251.43 ± 1 kg/m3	–	–
300.65 K, 100 kPa	1214.8 ± 0.57 kg/m3	1454 ± 0.95	1.96 ± 0.024
303.15 K, 100 kPa	1212.28 ± 0.57 kg/m3 and 1212.29 ± 0.57 kg/m3	1445.7 ± 0.95	1.875 ± 0.023
303.15 K, 2000 kPa	1213.48 ± 0.58 kg/m3	–	–
303.15 K, 5000 kPa	1215.34 ± 0.59 kg/m3	–	–
303.15 K, 7000 kPa	1216.56 ± 0.6 kg/m3	–	–
303.15 K, 10000 kPa	1218.37 ± 0.61 kg/m3	–	–
303.15 K, 15000 kPa	1221.32 ± 0.64 kg/m3	–	–
303.15 K, 20000 kPa	1224.19 ± 0.67 kg/m3	–	–
303.15 K, 25000 kPa	1226.98 ± 0.69 kg/m3	–	–
303.15 K, 30000 kPa	1229.71 ± 0.73 kg/m3	–	–
303.15 K, 35000 kPa	1232.36 ± 0.76 kg/m3	–	–
303.15 K, 40000 kPa	1234.96 ± 0.8 kg/m3	–	–
303.15 K, 45000 kPa	1237.49 ± 0.83 kg/m3	–	–
303.15 K, 50000 kPa	1239.97 ± 0.87 kg/m3	–	–
303.15 K, 55000 kPa	1242.4 ± 0.91 kg/m3	–	–
303.15 K, 60000 kPa	1244.77 ± 0.95 kg/m3	–	–
303.15 K, 65000 kPa	1247.09 ± 1 kg/m3	–	–
305.65 K, 100 kPa	1209.76 ± 0.57 kg/m3	1437.3 ± 0.95	1.797 ± 0.022
308.15 K, 100 kPa	1207.25 ± 0.57 kg/m3	1429 ± 0.95	1.728 ± 0.021
308.15 K, 2000 kPa	1208.47 ± 0.58 kg/m3	–	–
308.15 K, 5000 kPa	1210.38 ± 0.59 kg/m3	–	–
308.15 K, 7000 kPa	1211.63 ± 0.6 kg/m3	–	–
308.15 K, 10000 kPa	1213.48 ± 0.61 kg/m3	–	–
308.15 K, 15000 kPa	1216.49 ± 0.63 kg/m3	–	–
308.15 K, 20000 kPa	1219.43 ± 0.66 kg/m3	–	–
308.15 K, 25000 kPa	1222.28 ± 0.69 kg/m3	–	–
308.15 K, 30000 kPa	1225.06 ± 0.72 kg/m3	–	–
308.15 K, 35000 kPa	1227.77 ± 0.75 kg/m3	–	–
308.15 K, 40000 kPa	1230.42 ± 0.79 kg/m3	–	–
308.15 K, 45000 kPa	1233 ± 0.83 kg/m3	–	–
308.15 K, 50000 kPa	1235.53 ± 0.86 kg/m3	–	–
308.15 K, 55000 kPa	1238 ± 0.9 kg/m3	–	–
308.15 K, 60000 kPa	1240.41 ± 0.94 kg/m3	–	–
308.15 K, 65000 kPa	1242.78 ± 0.99 kg/m3	–	–
310.65 K, 100 kPa	1204.73 ± 0.57 kg/m3	1420.7 ± 0.95	1.654 ± 0.02
313.15 K, 100 kPa	1202.21 ± 0.57 kg/m3	1412.4 ± 0.95	1.59 ± 0.019
313.15 K, 2000 kPa	1203.46 ± 0.57 kg/m3	–	–
313.15 K, 5000 kPa	1205.41 ± 0.59 kg/m3	–	–
313.15 K, 7000 kPa	1206.7 ± 0.59 kg/m3	–	–
313.15 K, 10000 kPa	1208.59 ± 0.61 kg/m3	–	–
313.15 K, 15000 kPa	1211.67 ± 0.63 kg/m3	–	–
313.15 K, 20000 kPa	1214.67 ± 0.66 kg/m3	–	–
313.15 K, 25000 kPa	1217.59 ± 0.69 kg/m3	–	–
313.15 K, 30000 kPa	1220.43 ± 0.72 kg/m3	–	–
313.15 K, 35000 kPa	1223.19 ± 0.75 kg/m3	–	–
313.15 K, 40000 kPa	1225.89 ± 0.78 kg/m3	–	–
313.15 K, 45000 kPa	1228.52 ± 0.82 kg/m3	–	–
313.15 K, 50000 kPa	1231.1 ± 0.85 kg/m3	–	–
313.15 K, 55000 kPa	1233.61 ± 0.89 kg/m3	–	–
313.15 K, 60000 kPa	1236.07 ± 0.93 kg/m3	–	–
